Results from patent publication US7112602B2, “Methods of treating undesired angiogenesis with 2-methyl-EM-138” (The Children's Medical Center Corporation, priority 1998, dated 2006).
Marks after values point to notes of the source that are not given here.

What was measured:
[1] = tested on: B16-BL6 melanoma cells; test: B16-BL6 melanoma pulmonary metastasis model, intraperitoneal treatment; assay type: in vivo, C57B1/6 mice; conditions: for angiogenesis inhibitory activity (comparison in words): B16-BL6 metastasis studies; for angiogenesis inhibitory activity (comparison in words) / T/C (ratio of lung metastases of treated vs. control animals) / IC50 (50% inhibition of surface metastasis) / Mean Number of Pulmonary Metastases / % Inhibition: i.p.; for T/C (ratio of lung metastases of treated vs. control animals): 0.4 mmol/kg in 2.8% DMSO; for T/C (ratio of lung metastases of treated vs. control animals) / % Inhibition: from 72 hours after tumor cells, day 14; for IC50 (50% inhibition of surface metastasis): varying doses, average of three experiments, 7-R-(+) tested once at each dose, up to 0.8 mmol/kg; for anti-tumor activity (summary in words): summary of Tables 1 and 2, at the tested doses; for Mean Number of Pulmonary Metastases / % Inhibition: 1.0 ml of 5.0 mg/ml in 2.8% DMSO; for Mean Number of Pulmonary Metastases: four times a day from 72 hours after tumor cells, surface lung metastases counted day 14; for % Inhibition: versus DMSO control, p < 0.01
Procedure: B16-BL6 melanoma cells (5×10^4) were injected intravenously into the tail veins of C57B1/6 mice. The mice were given intraperitoneal (i.p.) treatments of either 1.0 ml 2.8% DMSO alone (control), 1.0 ml (5.0 mg/ml 2.8% DMSO) 2-phthalimidinoglutaric acid (EM-138) in DMSO, or 1.0 ml (5.0 mg/ml 2.8%) 2-methyl-2-phthalimidinoglutaric acid (2-Me-EM-138) in DMSO four times a day beginning 72 hours after injection of the tumor cells. Fourteen days after tumor cell inoculation, the lungs were removed from the mice and the surface pulmonary metastases were counted.
B16-BL6 melanoma cells (5×10^4) were injected intravenously into the tail veins of C57B1/6 mice. The mice were given intraperitoneal (i.p.) treatments of either 1.0 ml 2.8% DMSO alone (control), 1.0 ml (5.0 mg/ml) DL-2-methyl-2-phthalimidinoglutaric acid (racemate) in 2.8% DMSO, 1.0 ml (5.0 mg/ml) (R)-(+)-2-methyl-2-phthalimidinoglutaric acid (JS-2-13-P1) in 2.8% DMSO, or (S)-(−)-2-methyl-2-phthalimidinoglutaric acid (JS-2-13-P2) in 2.8% DMSO four times a day beginning 72 hours after injection of the tumor cells. Fourteen days after tumor cell inoculation, the lungs were removed from the mice and the surface pulmonary metastases were counted.
B16-BL6 melanoma cells (5×10^4) were injected intravenously into the tail veins of C57B1/6 mice. The mice were given intraperitoneal (i.p.) treatments of one of the following solutions four times a day beginning 72 hours after injection of the tumor cells. [drawing 4] • 1.0 ml of thalidomide in 2.8% DMSO • 1.0 ml of 3′-hydroxy-2-phthalimidinoglutaric acid in 2.8% DMSO (compound 5a) • 1.0 ml of 4′-hydroxy-2-phthalimidinoglutaric acid in 2.8% DMSO (compound 5b) • 1.0 ml of 2-phthalimidinoglutaric acid (EM-138) in 2.8% DMSO (compound 5c) • 1.0 ml of DL-2-methyl-2-phthalimidinoglutaric acid (racemate) in 2.8% DMSO (compound 7) • 1.0 ml of (R)-(+)-2-methyl-2-phthalimidinoglutaric acid (JS-2-13-P1) in 2.8% DMSO (compound 7-R-(+)) • 1.0 ml of (S)-(−)-2-methyl-2-phthalimidinoglutaric acid (JS-2-13-P2) in 2.8% DMSO (compound 7-S-(−))
A dose of 0.4 mmol/kg was used for each compound tested. Fourteen days after tumor cell inoculation, the lungs were removed from the mice and the surface pulmonary metastases were counted.
This experiment was repeated at varying doses. The in the following table represent the average values for three of the experiment.

[2] = tested on: vascular endothelial cell proliferation; conditions: endothelial versus tumor cell proliferation in vitro; cited from earlier work
[3] = Resistance to hydrolysis; assay type: physicochemical; conditions: compared with thalidomide
[4] = tested on: B16-BL6 melanoma cells; test: B16-BL6 melanoma pulmonary metastasis model, oral (gavage) treatment; assay type: in vivo, C57B1/6 mice
Procedure: B16-BL6 melanoma cells (5×10^4) were injected intravenously into the tail veins of C57B1/6 mice. Three days later, the mice received a gavage treatment with 0.8 mmol/kg of 2-phthalimidinoglutaric acid (EM-138). The mice received either a single treatment, five treatments on alternate days, or one treatment every day for eleven days. Fourteen days after tumor cell inoculation, the lungs were removed from the mice and the surface pulmonary metastases were counted. The values shown are the mean of 5 mice per group. The bars on the graph represent the standard deviation.
B16-BL6 melanoma cells (5×10^4) were injected intravenously into the tail veins of C57B1/6 mice. The mice were given a single oral treatment of 2-phthalimidinoglutaric acid (EM-138) of 0.8 mmol/kg. The treatment was initiated one day prior to tumor cells or on day 1, 2, 3, 5, or 7 after tumor cells. Fourteen days after tumor cell inoculation, the lungs were removed from the mice and the surface pulmonary metastases were counted. The values shown are the mean of 5 mice per group. The bars on the graph represent the standard deviation.

[5] = Racemization of enantiomers; assay type: physicochemical

IC50 (50% inhibition of surface metastasis) [1] | Compound | T/C (ratio of lung metastases of treated vs. control animals) [1] | anti-tumor activity (summary in words) [1] | also measured
0.1^a mmol/kg | C[C@](CCC(=O)O)(C(=O)O)N1Cc2ccccc2C1=O [7-S-(−), (S)-(−)-2-methyl-2-phthalimidinoglutaric acid] | 0.15 | – | angiogenesis inhibitory activity (comparison in words) [1]: greater angiogenesis inhibitory activity than does the (R) isomer
No activity^b | C[C@@](CCC(=O)O)(C(=O)O)N1Cc2ccccc2C1=O [7-R-(+), (R)-(+)-2-methyl-2-phthalimidinoglutaric acid] | 0.7 | little or no activity | –
3.2^a mmol/kg | O=C1CCC(N2C(=O)c3ccccc3C2=O)C(=O)N1 (centres unmarked) [Thalidomide, thalidomide, reference compound] | 0.9 | – | –
– | CO[C@@H]1[C@H](OC(=O)NC(=O)CCl)CC[C@]2(CO2)[C@H]1[C@@]1(C)O[C@@H]1CC=C(C)C [AGM-1470] | – | – | half-maximal inhibition of endothelial cell proliferation at lower concentration than tumor cell proliferation [2]: 4 logs
– | O=C(O)CCC(C(=O)O)N1C(=O)c2ccccc2C1O (centres unmarked) [Compound 5a, 3′-hydroxy-2-phthalimidinoglutaric acid] | 0.95 | – | –
0.2^a mmol/kg | O=C(O)CCC(C(=O)O)N1Cc2ccccc2C1=O (centres unmarked) [Compound 5c, 2-phthalimidinoglutaric acid] | 0.2 | considerably greater inhibitory activity than thalidomide | resistance to hydrolysis [3]: relatively resistant to hydrolysis; inhibition of metastasis ([4]; dose of 0.8 mmol/kg/day): greater than 90%; inhibition of metastasis ([4]; single dose): 50%; racemization of enantiomers [5]: readily racemize; Mean Number of Pulmonary Metastases [1]: 85; % Inhibition [1]: 60%
– | O=C(O)CCC(C(=O)O)N1Cc2c(O)cccc2C1=O (centres unmarked) [Compound 5b, 4′-hydroxy-2-phthalimidinoglutaric acid] | 0.9 | – | –
0.2^a mmol/kg | CC(CCC(=O)O)(C(=O)O)N1Cc2ccccc2C1=O (racemic) [Compound 7, DL-2-methyl-2-phthalimidinoglutaric acid] | 0.25 | considerably greater inhibitory activity than thalidomide | angiogenesis inhibitory activity (comparison in words) [1]: as potent an inhibitor of angiogenesis as EM-138; Mean Number of Pulmonary Metastases [1]: 84; % Inhibition [1]: 60%
